The kinase profiling compilation of Christmann-Franck et al. (2016)

Assays:
PAK7 (human) = PAK7 (human) (UniProt Q9P286)
PAK4 (human) = PAK4 (human) (UniProt O96013)
CSNK1D (human) = CSNK1D (human) (UniProt P48730)
IKBKB (human) = IKBKB (human) (UniProt O14920)
BRSK2 (human) = BRSK2 (human) (UniProt Q8IWQ3)
DYRK3 (human) = DYRK3 (human) (UniProt O43781)
MKNK1 (human) = MKNK1 (human) (UniProt Q9BUB5)
HIPK2 (human) = HIPK2 (human) (UniProt Q9H2X6)
PIM2 (human) = PIM2 (human) (UniProt Q9P1W9)
MELK (human) = MELK (human) (UniProt Q14680)
MAPK15 (human) = MAPK15 (human) (UniProt Q8TD08)
MAPK1 (human) = MAPK1 (human) (UniProt P28482)
RPS6KA3 KD1 KD2 (human) = RPS6KA3 KD1 KD2 (human) (UniProt P51812)
DYRK2 (human) = DYRK2 (human) (UniProt Q92630)
PHKG1 (human) = PHKG1 (human) (UniProt Q16816)
PHKG1 (human), sequence (Q16816 whole entry, looked up): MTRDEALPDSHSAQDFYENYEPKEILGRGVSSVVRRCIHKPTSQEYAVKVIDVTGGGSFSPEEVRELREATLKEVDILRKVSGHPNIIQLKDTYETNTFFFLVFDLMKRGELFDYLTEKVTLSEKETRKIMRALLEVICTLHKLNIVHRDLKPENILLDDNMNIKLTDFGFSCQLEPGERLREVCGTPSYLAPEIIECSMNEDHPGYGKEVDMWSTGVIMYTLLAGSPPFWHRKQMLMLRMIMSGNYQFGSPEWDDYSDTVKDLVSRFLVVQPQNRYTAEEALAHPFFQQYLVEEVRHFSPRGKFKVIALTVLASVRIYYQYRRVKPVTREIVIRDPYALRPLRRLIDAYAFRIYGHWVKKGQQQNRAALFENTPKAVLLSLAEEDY

EEF2K (human) = EEF2K (human) (UniProt O00418)
YES1 (human) = YES1 (human) (UniProt P07947)
YES1 (human), sequence (P07947 whole entry, looked up): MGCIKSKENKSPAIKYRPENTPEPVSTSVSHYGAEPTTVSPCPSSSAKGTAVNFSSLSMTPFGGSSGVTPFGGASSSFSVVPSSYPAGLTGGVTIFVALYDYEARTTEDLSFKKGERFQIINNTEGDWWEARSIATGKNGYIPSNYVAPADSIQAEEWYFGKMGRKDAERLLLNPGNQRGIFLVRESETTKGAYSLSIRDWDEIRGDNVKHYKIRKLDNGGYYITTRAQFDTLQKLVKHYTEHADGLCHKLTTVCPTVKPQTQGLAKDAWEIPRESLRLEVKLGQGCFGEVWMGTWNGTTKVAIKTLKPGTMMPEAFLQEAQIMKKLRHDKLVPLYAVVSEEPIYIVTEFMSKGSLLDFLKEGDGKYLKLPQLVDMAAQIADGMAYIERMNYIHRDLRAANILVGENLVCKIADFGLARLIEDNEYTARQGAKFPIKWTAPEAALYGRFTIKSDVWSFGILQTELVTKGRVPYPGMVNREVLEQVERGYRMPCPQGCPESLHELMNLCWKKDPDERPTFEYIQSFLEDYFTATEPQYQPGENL

SRC (human) = SRC (human) (UniProt P12931)
PAK6 (human) = PAK6 (human) (UniProt Q9NQU5)
CHEK2 (human) = CHEK2 (human) (UniProt O96017)
LCK (mouse) = settings: accession and sequence are those of the human protein
MAPK11 (human) = MAPK11 (human) (UniProt Q15759)
[1] = tested on: RPS6KB1 (human), P23443 [T412E]
RPS6KB1 (human), P23443 [T412E], sequence (P23443 whole entry T412E, looked up): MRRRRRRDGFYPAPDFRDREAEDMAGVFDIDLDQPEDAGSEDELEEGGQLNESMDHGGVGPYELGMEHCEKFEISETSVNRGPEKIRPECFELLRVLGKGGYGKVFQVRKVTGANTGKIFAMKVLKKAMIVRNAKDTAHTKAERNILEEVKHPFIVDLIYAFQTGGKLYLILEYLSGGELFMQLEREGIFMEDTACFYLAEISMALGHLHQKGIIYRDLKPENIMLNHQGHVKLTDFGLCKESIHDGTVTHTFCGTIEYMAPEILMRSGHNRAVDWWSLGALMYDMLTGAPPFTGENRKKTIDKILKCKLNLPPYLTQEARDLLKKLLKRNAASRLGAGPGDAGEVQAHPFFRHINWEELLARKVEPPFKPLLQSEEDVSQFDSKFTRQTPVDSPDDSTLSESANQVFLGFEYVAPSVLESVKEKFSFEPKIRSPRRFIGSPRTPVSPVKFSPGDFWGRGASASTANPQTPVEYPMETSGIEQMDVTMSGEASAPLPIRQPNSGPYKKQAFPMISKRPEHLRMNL

MAPK14 (human) = MAPK14 (human) (UniProt Q16539)
MAPK14 (human), sequence (Q16539 whole entry, looked up): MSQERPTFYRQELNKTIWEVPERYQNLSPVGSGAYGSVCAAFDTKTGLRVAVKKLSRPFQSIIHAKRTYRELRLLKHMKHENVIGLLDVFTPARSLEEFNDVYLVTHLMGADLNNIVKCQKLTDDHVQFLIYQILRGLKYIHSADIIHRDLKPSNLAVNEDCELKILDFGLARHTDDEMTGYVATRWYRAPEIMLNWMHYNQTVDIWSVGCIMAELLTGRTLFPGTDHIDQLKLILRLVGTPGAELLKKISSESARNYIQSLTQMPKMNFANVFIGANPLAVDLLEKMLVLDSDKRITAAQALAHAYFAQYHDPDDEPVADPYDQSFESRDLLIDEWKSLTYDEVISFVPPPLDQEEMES

INSRR (human) = INSRR (human) (UniProt P14616)
CaMK1 (human) = CaMK1 (human) (UniProt Q14012)
IKBKE (human) = IKBKE (human) (UniProt Q14164)
MAPK3 (human) = MAPK3 (human) (UniProt P27361)
SRPK1 (human) = SRPK1 (human) (UniProt Q96SB4)
PIM3 (human) = PIM3 (human) (UniProt Q86V86)
RPS6KA1 KD1 KD2 (human) = RPS6KA1 KD1 KD2 (human) (UniProt Q15418)
FGFR1 (human) = FGFR1 (human) (UniProt P11362)
FGFR1 (human), sequence (P11362 whole entry, looked up): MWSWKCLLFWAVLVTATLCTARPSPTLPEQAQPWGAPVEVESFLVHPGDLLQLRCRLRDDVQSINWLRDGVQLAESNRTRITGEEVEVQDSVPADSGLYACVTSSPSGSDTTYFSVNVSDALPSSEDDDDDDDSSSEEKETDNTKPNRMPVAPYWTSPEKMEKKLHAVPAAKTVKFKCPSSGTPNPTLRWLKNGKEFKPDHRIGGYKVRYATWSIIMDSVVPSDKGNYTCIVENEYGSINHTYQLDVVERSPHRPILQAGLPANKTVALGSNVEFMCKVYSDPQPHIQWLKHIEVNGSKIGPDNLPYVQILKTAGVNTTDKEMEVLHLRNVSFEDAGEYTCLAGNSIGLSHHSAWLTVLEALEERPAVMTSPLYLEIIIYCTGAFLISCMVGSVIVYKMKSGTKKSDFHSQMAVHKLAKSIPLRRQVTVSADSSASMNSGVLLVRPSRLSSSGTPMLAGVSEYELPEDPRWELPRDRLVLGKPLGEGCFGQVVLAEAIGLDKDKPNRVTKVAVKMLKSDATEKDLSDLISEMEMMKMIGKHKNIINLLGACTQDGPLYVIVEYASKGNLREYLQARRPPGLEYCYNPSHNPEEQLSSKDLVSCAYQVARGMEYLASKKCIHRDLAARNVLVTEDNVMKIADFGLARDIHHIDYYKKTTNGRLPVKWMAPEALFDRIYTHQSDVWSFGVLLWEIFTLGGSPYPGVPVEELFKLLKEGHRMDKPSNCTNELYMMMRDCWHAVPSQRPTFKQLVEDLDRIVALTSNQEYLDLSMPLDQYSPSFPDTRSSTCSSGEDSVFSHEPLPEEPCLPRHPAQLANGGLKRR

CDK2 CCNA2 (human) = CDK2 CCNA2 (human) (UniProt P20248+P24941)
FLT1 (human) = FLT1 (human) (UniProt P17948)

HIPK2 (human), sequence (Q9H2X6 whole entry, looked up): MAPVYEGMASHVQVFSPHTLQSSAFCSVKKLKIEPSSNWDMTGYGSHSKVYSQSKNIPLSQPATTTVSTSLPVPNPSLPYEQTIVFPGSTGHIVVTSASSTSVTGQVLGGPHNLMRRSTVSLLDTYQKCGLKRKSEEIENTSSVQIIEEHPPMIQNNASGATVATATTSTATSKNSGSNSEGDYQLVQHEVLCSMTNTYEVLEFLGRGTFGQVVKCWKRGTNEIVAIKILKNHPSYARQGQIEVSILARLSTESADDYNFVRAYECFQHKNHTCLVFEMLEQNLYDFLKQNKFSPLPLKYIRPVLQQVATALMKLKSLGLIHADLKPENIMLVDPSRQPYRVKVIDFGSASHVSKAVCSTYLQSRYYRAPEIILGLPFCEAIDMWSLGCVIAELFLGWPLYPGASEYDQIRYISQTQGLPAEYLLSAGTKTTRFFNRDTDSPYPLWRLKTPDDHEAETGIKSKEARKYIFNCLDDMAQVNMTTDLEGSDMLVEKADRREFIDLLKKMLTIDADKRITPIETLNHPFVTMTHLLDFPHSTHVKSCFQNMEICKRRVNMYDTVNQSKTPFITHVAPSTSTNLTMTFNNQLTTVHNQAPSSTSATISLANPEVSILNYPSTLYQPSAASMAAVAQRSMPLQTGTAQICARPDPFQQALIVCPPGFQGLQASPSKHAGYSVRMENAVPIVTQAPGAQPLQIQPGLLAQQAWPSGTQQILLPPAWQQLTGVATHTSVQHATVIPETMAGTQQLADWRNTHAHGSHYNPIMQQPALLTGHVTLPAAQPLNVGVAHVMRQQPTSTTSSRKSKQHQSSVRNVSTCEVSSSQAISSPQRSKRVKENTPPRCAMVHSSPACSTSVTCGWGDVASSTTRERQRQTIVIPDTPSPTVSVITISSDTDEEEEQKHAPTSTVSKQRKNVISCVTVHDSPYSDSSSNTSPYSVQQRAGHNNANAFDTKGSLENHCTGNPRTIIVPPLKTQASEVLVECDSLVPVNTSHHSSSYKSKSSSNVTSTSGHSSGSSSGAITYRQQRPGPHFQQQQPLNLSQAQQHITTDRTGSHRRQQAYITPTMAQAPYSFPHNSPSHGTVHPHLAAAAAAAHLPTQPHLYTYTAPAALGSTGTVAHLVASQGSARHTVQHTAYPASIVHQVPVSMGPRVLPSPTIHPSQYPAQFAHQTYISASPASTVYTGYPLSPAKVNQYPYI
MKNK1 (human), sequence (Q9BUB5 whole entry, looked up): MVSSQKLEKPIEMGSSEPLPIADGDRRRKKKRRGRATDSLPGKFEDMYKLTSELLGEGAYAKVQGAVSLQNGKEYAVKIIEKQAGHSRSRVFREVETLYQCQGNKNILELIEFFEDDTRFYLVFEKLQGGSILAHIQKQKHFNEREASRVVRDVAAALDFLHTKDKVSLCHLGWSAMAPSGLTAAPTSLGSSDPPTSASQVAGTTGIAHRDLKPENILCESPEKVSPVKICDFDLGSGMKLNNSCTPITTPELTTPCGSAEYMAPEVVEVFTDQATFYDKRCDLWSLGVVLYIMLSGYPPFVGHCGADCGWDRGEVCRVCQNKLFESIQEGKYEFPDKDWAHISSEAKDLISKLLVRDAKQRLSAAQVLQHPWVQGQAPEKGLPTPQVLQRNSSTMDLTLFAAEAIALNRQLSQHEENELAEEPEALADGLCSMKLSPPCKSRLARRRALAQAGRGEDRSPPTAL
PAK7 (human), sequence (Q9P286 whole entry, looked up): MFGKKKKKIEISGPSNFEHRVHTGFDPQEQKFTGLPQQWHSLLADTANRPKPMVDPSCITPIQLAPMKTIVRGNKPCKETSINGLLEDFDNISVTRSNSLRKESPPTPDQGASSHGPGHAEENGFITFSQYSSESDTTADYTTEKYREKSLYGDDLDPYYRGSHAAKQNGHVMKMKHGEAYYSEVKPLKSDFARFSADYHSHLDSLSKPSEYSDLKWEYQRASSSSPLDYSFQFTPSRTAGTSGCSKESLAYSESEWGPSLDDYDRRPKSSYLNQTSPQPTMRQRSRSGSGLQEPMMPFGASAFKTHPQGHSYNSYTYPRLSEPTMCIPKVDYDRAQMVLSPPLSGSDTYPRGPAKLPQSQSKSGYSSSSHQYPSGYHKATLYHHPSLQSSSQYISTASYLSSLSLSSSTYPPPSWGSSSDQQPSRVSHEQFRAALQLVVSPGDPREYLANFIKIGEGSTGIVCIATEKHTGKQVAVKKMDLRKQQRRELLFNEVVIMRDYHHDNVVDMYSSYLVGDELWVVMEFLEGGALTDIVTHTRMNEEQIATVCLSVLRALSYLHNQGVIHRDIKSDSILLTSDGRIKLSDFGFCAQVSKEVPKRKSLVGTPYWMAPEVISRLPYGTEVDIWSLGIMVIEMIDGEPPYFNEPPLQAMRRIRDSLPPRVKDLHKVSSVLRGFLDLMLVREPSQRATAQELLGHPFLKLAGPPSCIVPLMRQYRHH

COC(=O)Nc1ccc(-c2nc(N3CCOCC3)c3cnn(C4CCN(C(=O)OC)CC4)c3n2)cc1
per cent of control (PAK7 (human); compound 1.0 µM): 97% | per cent of control (PAK7 (human); compound 10.0 µM): 87% | per cent of control (PAK4 (human); compound 1.0 µM): 93% | per cent of control (PAK4 (human); compound 10.0 µM): 97% | per cent of control (CSNK1D (human); compound 1.0 µM): 90% | per cent of control (CSNK1D (human); compound 10.0 µM): 92% | per cent of control (IKBKB (human); compound 1.0 µM): 97% | per cent of control (IKBKB (human); compound 10.0 µM): 100% | per cent of control (BRSK2 (human); compound 1.0 µM): 95% | per cent of control (BRSK2 (human); compound 10.0 µM): 88% | per cent of control (DYRK3 (human); compound 1.0 µM): 84% | per cent of control (DYRK3 (human); compound 10.0 µM): 77% | per cent of control (MKNK1 (human); compound 1.0 µM): 96% | per cent of control (MKNK1 (human); compound 10.0 µM): 92% | per cent of control (HIPK2 (human); compound 1.0 µM): 95% | per cent of control (HIPK2 (human); compound 10.0 µM): 94% | per cent of control (PIM2 (human); compound 1.0 µM): 81% | per cent of control (PIM2 (human); compound 10.0 µM): 80% | per cent of control (MELK (human); compound 1.0 µM): 87% | per cent of control (MELK (human); compound 10.0 µM): 75% | per cent of control (MAPK15 (human); compound 1.0 µM): 94% | per cent of control (MAPK15 (human); compound 10.0 µM): 98% | per cent of control (MAPK1 (human); compound 1.0 µM): 109% | per cent of control (MAPK1 (human); compound 10.0 µM): 108% | per cent of control (RPS6KA3 KD1 KD2 (human); compound 1.0 µM): 88% | per cent of control (RPS6KA3 KD1 KD2 (human); compound 10.0 µM): 87% | per cent of control (DYRK2 (human); compound 1.0 µM): 92% | per cent of control (DYRK2 (human); compound 10.0 µM): 96% | per cent of control (PHKG1 (human); compound 1.0 µM): 108% | per cent of control (PHKG1 (human); compound 10.0 µM): 93% | per cent of control (EEF2K (human); compound 1.0 µM): 97% | per cent of control (EEF2K (human); compound 10.0 µM): 106% | per cent of control (YES1 (human); compound 1.0 µM): 109% | per cent of control (YES1 (human); compound 10.0 µM): 113% | per cent of control (SRC (human); compound 1.0 µM): 90% | per cent of control (SRC (human); compound 10.0 µM): 67% | per cent of control (PAK6 (human); compound 1.0 µM): 99% | per cent of control (PAK6 (human); compound 10.0 µM): 90% | per cent of control (CHEK2 (human); compound 1.0 µM): 86% | per cent of control (CHEK2 (human); compound 10.0 µM): 88% | per cent of control (LCK (mouse); compound 1.0 µM): 100% | per cent of control (LCK (mouse); compound 10.0 µM): 91% | per cent of control (MAPK11 (human); compound 1.0 µM): 82% | per cent of control (MAPK11 (human); compound 10.0 µM): 81% | per cent of control ([1]; compound 1.0 µM): 94% | per cent of control ([1]; compound 10.0 µM): 93% | per cent of control (MAPK14 (human); compound 1.0 µM): 97% | per cent of control (MAPK14 (human); compound 10.0 µM): 88% | per cent of control (INSRR (human); compound 1.0 µM): 88% | per cent of control (INSRR (human); compound 10.0 µM): 99% | per cent of control (CaMK1 (human); compound 1.0 µM): 97% | per cent of control (CaMK1 (human); compound 10.0 µM): 102% | per cent of control (IKBKE (human); compound 1.0 µM): 90% | per cent of control (IKBKE (human); compound 10.0 µM): 90% | per cent of control (MAPK3 (human); compound 1.0 µM): 90% | per cent of control (MAPK3 (human); compound 10.0 µM): 97% | per cent of control (SRPK1 (human); compound 1.0 µM): 109% | per cent of control (SRPK1 (human); compound 10.0 µM): 102% | per cent of control (PIM3 (human); compound 1.0 µM): 87% | per cent of control (PIM3 (human); compound 10.0 µM): 80% | per cent of control (RPS6KA1 KD1 KD2 (human); compound 1.0 µM): 100% | per cent of control (RPS6KA1 KD1 KD2 (human); compound 10.0 µM): 102% | per cent of control (FGFR1 (human); compound 1.0 µM): 95% | per cent of control (FGFR1 (human); compound 10.0 µM): 109% | per cent of control (CDK2 CCNA2 (human); compound 1.0 µM): 111% | per cent of control (CDK2 CCNA2 (human); compound 10.0 µM): 104% | per cent of control (FLT1 (human); compound 1.0 µM): 100% | per cent of control (FLT1 (human); compound 10.0 µM): 88%
